Source: US20230036854A1, “HETEROCYCLIC SPIRO-COMPOUNDS AS AM2 RECEPTOR INHIBITORS” (THE UNIVERSITY OF SHEFFIELD, priority 2018, published 2023)
Where no end group is shown, it is not given here.

Target: T1, AM2 receptor (1321N1 cells transfected with CALCRL+RAMP3) (Homo sapiens, UniProt O60896+Q16602)
T1 construct: host or cells: 1321N1 cells
Test: AM2 receptor inhibition, LANCE cAMP agonist-antagonist competition assay
Type: cell-based
Conditions: inhibition of AM induced cAMP activation, read-out: AM2 D2 protocol: pIC50 (converted)
How it was run: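 1321N1 cells co-expressing CALCRL and RAMP3 (2500/well) were preincubated with compound for 30 min at room temperature, then stimulated with adrenomedullin at its EC50 dose for 15 min in HBSS/HEPES/BSA buffer, pH 7.4. cAMP was measured by LANCE TR-FRET and normalised to forskolin (100%) and vehicle (0%) controls.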

T1 sequence (Q16602 23-461): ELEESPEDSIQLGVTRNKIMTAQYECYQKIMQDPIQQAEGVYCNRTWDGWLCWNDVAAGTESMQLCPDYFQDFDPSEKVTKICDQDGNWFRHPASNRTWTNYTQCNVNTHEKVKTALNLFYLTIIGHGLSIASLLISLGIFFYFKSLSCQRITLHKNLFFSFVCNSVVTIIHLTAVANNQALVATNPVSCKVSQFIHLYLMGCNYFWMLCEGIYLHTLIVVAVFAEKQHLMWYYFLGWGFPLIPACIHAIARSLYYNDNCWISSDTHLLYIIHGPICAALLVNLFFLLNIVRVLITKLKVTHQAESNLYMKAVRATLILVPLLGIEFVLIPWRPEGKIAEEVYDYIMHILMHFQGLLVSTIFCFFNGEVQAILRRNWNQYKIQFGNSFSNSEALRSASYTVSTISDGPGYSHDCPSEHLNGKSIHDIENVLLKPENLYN
T1 sequence (O60896 24-148): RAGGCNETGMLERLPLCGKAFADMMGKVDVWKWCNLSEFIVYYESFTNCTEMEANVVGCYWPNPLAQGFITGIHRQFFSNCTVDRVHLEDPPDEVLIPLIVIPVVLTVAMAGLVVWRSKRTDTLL

Row | Compound | IC50
1 | CCC1(C(=O)N(CC(=O)Nc2ccc3c(c2)C[C@@]2(C3)C(=O)Nc3ncccc32)Cc2ccccc2CNC)CCN(C(=O)N2CC(C(F)(F)F)C2)CC1 [Example 112, (R)-4-Ethyl-N-(2-((methylamino)methyl)benzyl)-N-(2-oxo-2-((2′-oxo-1,1′,2′,3-tetrahydrospiro[indene-2,3′-pyrrolo[2,3-b]pyridin]-5-yl)amino)ethyl)-1-(3-(trifluoromethyl)azetidine-1-carbonyl)piperidine-4-carboxamide] | 23.4 nM
2 | CNCc1cc(F)ccc1CN(CC(=O)Nc1ccc2c(c1)C[C@@]1(C2)C(=O)Nc2ncccc21)C(=O)C1(C)CCN(C(C)=O)CC1 [Example 138, (R)-1-Acetyl-N-[[4-fluoro-2-(methylaminomethyl)phenyl]methyl]-4-methyl-N-[2-oxo-2-[[(3R)-2-oxospiro[1H-pyrrolo[2,3-b]pyridine-3,2′-indane]-5′-yl]amino]ethyl]piperidine-4-carboxamide] | 501 nM
3 | CCC1(C(=O)N(CC(=O)Nc2ccc3c(c2)C[C@@]2(C3)C(=O)Nc3ncccc32)Cc2ccccc2CNC)CCN(C)C(=O)C1 (stereo partly drawn) [Example 140, 4-Ethyl-1-methyl-N-(2-((methylamino)methyl)benzyl)-2-oxo-N-(2-oxo-2-(((R)-2′-oxo-1,1′,2′,3-tetrahydrospiro[indene-2,3′-pyrrolo[2,3-b]pyridin]-5-yl)amino)ethyl)piperidine-4-carboxamide] | 417 nM
4 | CNCc1ccccc1CN(CC(=O)Nc1ccc2c(c1)C[C@@]1(C2)C(=O)Nc2ncccc21)C(=O)C1(C)CCN(Cc2ccncc2)CC1 [Example 50, (R)-4-Methyl-N-(2-((methylamino)methyl)benzyl)-N-(2-oxo-2-((2′-oxo-1,1′,2′,3-tetrahydrospiro[indene-2,3′-pyrrolo[2,3-b]pyridin]-5-yl)amino)ethyl)-1-(pyridin-4-ylmethyl)piperidine-4-carboxamide] | 2.19 nM
5 | CNCc1ccccc1CN(CC(=O)Nc1ccc2c(c1)C[C@@]1(C2)C(=O)Nc2ncccc21)C(=O)C1(C)CCN(C(=O)c2ccncn2)CC1 [Example 24, (R)-4-Methyl-N-(2-((methylamino)methyl)benzyl)-N-(2-oxo-2-((2′-oxo-1,1′,2′,3-tetrahydrospiro[indene-2,3′-pyrrolo[2,3-b]pyridin]-5-yl)amino)ethyl)-1-(pyrimidine-4-carbonyl) piperidine-4-carboxamide] | 2.95 nM

Further lines, results first:

Row | IC50 | Compound
6 | 2.34 nM | CCC1(C(=O)N(CC(=O)Nc2ccc3c(c2)C[C@@]2(C3)C(=O)Nc3ncccc32)Cc2ccccc2CNC)CCN(C(=O)[C@H](N)c2ccccc2)CC1 [Example 81, 1-((R)-2-Amino-2-phenylacetyl)-4-ethyl-N-(2-((methylamino)methyl)benzyl)-N-(2-oxo-2-(((R)-2′-oxo-1,1′,2′,3-tetrahydrospiro[indene-2,3′-pyrrolo[2,3-b]pyridin]-5-yl)amino)ethyl)piperidine-4-carboxamide]
7 | 8.71 nM | CCC1(C(=O)N(CC(=O)Nc2ccc3c(c2)C[C@@]2(C3)C(=O)Nc3ncccc32)Cc2ccccc2CNC)CCN(C(=O)C2CC2)CC1 [Example 72, (R)-1-(Cyclopropanecarbonyl)-4-ethyl-N-(2-((methylamino)methyl)benzyl)-N-(2-oxo-2-((2′-oxo-1,1′,2′,3-tetrahydrospiro[indene-2,3′-pyrrolo[2,3-b]pyridin]-5-yl)amino)ethyl)piperidine-4-carboxamide]
8 | 5.5 nM | CCC1(C(=O)N(CC(=O)Nc2ccc3c(c2)C[C@@]2(C3)C(=O)Nc3ncccc32)Cc2ccccc2CNC)CCN(C(=O)C2CCC2)CC1 [Example 89, (R)-1-(Cyclobutanecarbonyl)-4-ethyl-N-(2-((methylamino)methyl)benzyl)-N-(2-oxo-2-((2′-oxo-1,1′,2′,3-tetrahydrospiro[indene-2,3′-pyrrolo[2,3-b]pyridin]-5-yl)amino)ethyl)piperidine-4-carboxamide]

System: human pancreatic cancer cells
Test: not given
Conditions: local injection directly into tumours, pancreatic cancer model; cited from earlier work

Row | Compound | tumour size compared to controls
9 | AM22-52: "the AM peptide antagonist (AM22-52)"; "peptide and antibody AM2 receptor inhibitors are known such as AM22-52" (TVQKLAHQIYQFTDKDKDNVAPRSKISPQGY; ends and bridges not checked; UniProt P35318 116-146, looked up, fragment) | reduced tumour size significantly
